Test results taken from patent US11072812B2, “Substrates for covalent tethering of proteins to functional groups or solid surfaces” (PROMEGA CORPORATION, priority 2013, dated 2021).

Experiments:
[1] = tested on: HaloTag® protein; experiment: Binding efficiency/kinetics to HaloTag protein in cell lysate (chase with fluorescent HaloTag ligand, SDS-PAGE); details: SAHA-chloroalkane conjugates, 1 μM, 0-60 min; compared with PBI-5231 (O6)
Method: (§1) a) Binding efficiency to HaloTag® protein in lysate was measured by adding the methotrexate-chloroalkane conjugates to lysate from cells expressing a HaloTag® protein to a final concentration of 1 μM. Following 0-60 mins of binding, the reactions were chased with 1 μM fluorescent HaloTag® ligand. Unbound HaloTag® protein was detected through binding to the fluorescent HaloTag® ligand followed by analysis on SDS-PAGE gel and detection on a fluorescent gel scanner.
as §1, with “adding the dexamethasone-chloroalkane conjugates to” for “adding the methotrexate-chloroalkane conjugates to”, “the fluorescent HaloTag ligand followed” for “the fluorescent HaloTag® ligand followed”
a) Binding kinetics to HaloTag® protein in cell lysate was measured by adding the modified BIRB796-chloroalkane conjugates to lysate from cells expressing a HaloTag® protein at a final concentration of 1 μM. After 0-60 min of binding, the reactions were chased with 1 μM fluorescent HaloTag® ligand (Promega Corporation). Unbound HaloTag® protein was detected through binding to the fluorescent HaloTag® ligand followed by analysis on SDS-PAGE and detection on a fluorescent gel scanner.
Following 0-60 min of binding, the reactions were chased with 1 μM fluorescent HaloTag® ligand. Unbound HaloTag® protein was detected through binding to the fluorescent HaloTag® ligand followed by analysis on SDS-PAGE and detection on a fluorescent gel scanner.
a) Binding kinetics to HaloTag® protein in cell lysate was measured by adding the dasatinib-chloroalkane conjugates to lysate (final concentration of 1 μM) from cells expressing a HaloTag® protein. Following 0-60 min of binding, the reactions were chased with 1 μM fluorescent HaloTag® ligand. Unbound HaloTag® protein was detected through binding to the fluorescent HaloTag® ligand followed by analysis on SDS-PAGE and detection on a fluorescent gel scanner.

[2] = tested on: HaloTag® protein; experiment: Binding efficiency/kinetics to HaloTag protein in cells (cell permeability; chase with fluorescent HaloTag ligand, SDS-PAGE); assay type: cell-based; details: SAHA-chloroalkane conjugates, 10 μM, 0-180 min; HaloTag localized to cytoplasm or nucleus; compared with PBI-5231 (O6)
Method: b) Binding efficiency to HaloTag® protein in cells was measured by adding the methotrexate-chloroalkane conjugates to cells expressing a HaloTag® protein to a final concentration of 10 μM. Following 0-120 mins of binding, the reactions were chased with 5 μM fluorescent HaloTag® ligand. Unbound HaloTag® protein was detected through binding to the fluorescent HaloTag® ligand followed by cell lysis, analysis on a SDS-PAGE gel and detection on a fluorescent gel scanner.
b) Binding efficiency to HaloTag® protein in cells was measured by adding the dexamethasone-chloroalkane conjugates to cells expressing a HaloTag® protein to a final concentration of 10 μM. Following 0-60 mins of binding, the reaction was chased with 5 μM fluorescent HaloTag ligand. Unbound HaloTag® protein was detected through binding to the fluorescent HaloTag® ligand followed by cell lysis, analysis on SDS-PAGE gel and detection on a fluorescent gel scanner.
b) Binding kinetics to HaloTag® protein in cells was measured by adding the modified BIRB796-chloroalkane conjugates to cells expressing a HaloTag® protein at a final concentration of 10 μM. Following 0-60 min of binding, the reactions were chased with 5 μM fluorescent HaloTag® ligand. Unbound HaloTag® protein was detected through binding to the fluorescent HaloTag® ligand followed by cell lysis, analysis on SDS-PAGE and detection on a fluorescent gel scanner.
Following 0-180 min of binding, the reactions were chased with 5 μM fluorescent HaloTag® ligand. Unbound HaloTag® protein was detected through binding to the fluorescent HaloTag® ligand followed by cell lysis, analysis on SDS-PAGE and detection on a fluorescent gel scanner.
b) Binding kinetics to HaloTag® protein in cells was measured by adding the dasatinib-chloroalkane conjugates (final concentration of 10 μM) to cells expressing a HaloTag protein which localized to the cytoplasm or the nucleus. Following 0-90 min of binding, the reactions were chased with 5 μM fluorescent HaloTag® ligand. Unbound HaloTag® protein was detected through binding to the fluorescent HaloTag® ligand followed by cell lysis, analysis on SDS-PAGE and detection on a fluorescent gel scanner.

[3] = tested on: intracellular HDAC activity; experiment: Intracellular HDAC activity, non-lytic HDAC-Glo I/II assay in HEK293 and K562 cells; assay type: cell-based; details: PBI-5040 relative to SAHA, 2 h
Method: HEK293 cells were plated into a 96-well plate at 1×10^5 cell/ml, and 24 h later, the media was replaced with serum free media. K562 cells were plated in serum free media (96-well plate) at 2×10^5 cells/ml.

[4] = tested on: all known target of SAHA (HDAC1, HDAC2, HDAC3, HDAC6, HDAC8, HDAC10); experiment: Pull-down of endogenous targets from K562 cells onto HaloTag protein beads, Western blot and mass spec analysis; assay type: cell-based
Method: K562 cells were plated into 150 mm dishes at 1.66×10^6 cell/ml (total of 5×10^7 cells per dish). […] Following equilibrium binding of 2 h, the media was removed; cells were quickly washed with PBS; cells lysed in a detergent-based lysis buffer for 10 min and centrifuged at 3000×g for 1 min. Clear lysates were then added to 75 ul of settled paramagnetic HaloTag® protein beads and incubated with shaking for 15 min. […] The released targets were subjected to mass spec analysis (FIG. 14B) as well as western blot analysis (FIG. 14A) with anti-HDAC1 antibody (ABCAM), anti-HDAC2 antibody (ABCAM), anti-HDAC6 antibody (Millipore), anti-HDAC3 antibody (Thermo Fisher), anti-HDAC10 (ABCAM) and anti-HDAC8 antibody (Rockland).

For O=C(CCCCCCC(=O)Nc1ccc(CNC(=O)OCCOCCOCCOC(=O)NCCOCCOCCCCCCCl)cc1)NO [PBI-5040, SAHA-Carbamate], the “binding kinetics to HaloTag protein in cell lysate” value [1] was “significantly faster binding kinetics”, the “permeability/binding kinetics to HaloTag protein in cells” value [2] was “significantly faster permeability/binding kinetics” and the “reduction in SAHA potency due to the chloroalkane modification” value [3] was about 2 fold. The “pull-down of endogenous SAHA targets incl. low affinity (HDAC8) and low abundance (HDAC3) target” value ([4]; 20 uM, 2 h, beads 15 min, release with 400 μM SAHA) was “specifically pulled down” and the cellular permeability ([4]; inferred from pull down of nuclear (HDAC1) and cytoplasmic (HDAC 6) proteins) was “high”.
